Measured values as given in patent US20040200144A1, “Plant growth regulator and a method of producing the regulator” (Dainichiseika Color & Chemicals Mfg. Co., Ltd., priority 2003, published 2004).

Tests used:
Format in all cases: in vivo
watermelon young plants = test: Dwarfing test of watermelon young plant; settings: for Plant Height / Dwarfing Rate: 5 ml per cell on 7th day, measured 27th day; for Dwarfing Rate: vs comparative group
Description: After seeding, the pot was placed in the same greenhouse as described above to sprout. Subsequently, on the 5th day, the cinnamic aqueous acid solutions were added to the nursery soil in the joint pots. One of the joint pots (24 cells) was prepared as a 0.05% cinnamic acid aqueous solution addition group, and 5 ml of the 0.05% cinnamic acid aqueous solution was added to the nursery soil of each cell. Another one of the join pots was prepared as a 0.2% cinnamic acid aqueous solution addition group, and 5 ml of the 0.2% cinnamic acid aqueous solution was added to the nursery soil of each cell. […] Subsequently, the cultivation of carrot young plants in each group was continued under general conditions. On the 27th day, the heights of young plants in each group were measured, the dwarfing rate (%) was calculated, and the dwarfing effect of cinnamic acid aqueous solution on carrot young plants was examined. From the results in Table 5, it became evident that the 0.05% and 0.2% cinnamic acid aqueous solutions are effective in dwarfing carrot young plants. In the same way as in Example 5 except that seeds of cauliflower were sowed, the cinnamic acid solutions were added to the nursery soil in the joint pot on the 4th day, and that heights of young plants in each group were measured on the 20th day, the dwarfing effect of cinnamic acid aqueous solution on cauliflower young plants was examined. From the results in Table 12, it became evident that the cinnamic acid aqueous solutions are effective in dwarfing cauliflower young plants. In the same way as in Example 12 except that seeds of tomato were sowed, and that the cinnamic acid solutions were added to the nursery soil of the joint pot on the 7th day, the dwarfing effect of cinnamic acid aqueous solution on tomato young plants was examined. From the results in Table 17, it became evident that the cinnamic acid aqueous solutions are effective in dwarfing tomato young plants. In the same way as in Example 17 except that seeds of watermelon were sowed, and that plant heights were measured on the 27th day, the dwarfing effect of cinnamic acid aqueous solution on watermelon young plants was examined. From the results in Table 21, it became evident that the cinnamic acid aqueous solutions are effective in dwarfing watermelon young plants.

radish young plants = test: Dwarfing test of radish young plant; settings: for Plant Height / Dwarfing Rate: 5 ml per cell on 4th day, measured 20th day; for Dwarfing Rate: vs comparative group
Description: (§1) 50 g of sodium tripolyphosphate was dissolved in 400 ml of distilled water at 80° C., 17.5 g of cinnamic acid was added to the sodium tripolyphosphate solution and dissolved by stirring, the resultant solution was diluted with distilled water until the total volume of solution was 500 ml, and thus 3.5% cinnamic acid aqueous solution (pH 6.5) was prepared. The aqueous solution was further diluted with distilled water 70 times or 17.5 times, and 0.05% cinnamic acid aqueous solution and 0.2% cinnamic acid aqueous solution were prepared, respectively.
(§2) Nursery soil for house use was filled into paper joint pots (each with 24 cells: 34×43×50 mm/cell), water was sufficiently given to the soil, and seeds of carrots were sowed. After seeding, the pot was placed in the same greenhouse as described above to sprout. Subsequently, on the 5th day, the cinnamic aqueous acid solutions were added to the nursery soil in the joint pots. One of the joint pots (24 cells) was prepared as a 0.05% cinnamic acid aqueous solution addition group, and 5 ml of the 0.05% cinnamic acid aqueous solution was added to the nursery soil of each cell. Another one of the join pots was prepared as a 0.2% cinnamic acid aqueous solution addition group, and 5 ml of the 0.2% cinnamic acid aqueous solution was added to the nursery soil of each cell. The other one of the joint pots was prepared as a comparative group in which 5 ml of water is added to each cell, instead of the cinnamic acid aqueous solution. Subsequently, the cultivation of carrot young plants in each group was continued under general conditions. On the 27th day, the heights of young plants in each group were measured, the dwarfing rate (%) was calculated, and the dwarfing effect of cinnamic acid aqueous solution on carrot young plants was examined. […].
In the same way as in Example 12 except that seeds of radish were sowed, the dwarfing effect of cinnamic acid aqueous solution on radish young plants was examined. […]

cabbage young plants = test: Dwarfing test of cabbage young plant; settings: for Plant Height / Dwarfing Rate: 5 ml per cell on 4th day, measured 22nd day; for Dwarfing Rate: vs comparative group
Description: Dwarfing rate (%)=[(the plant height of the comparative group)−(the plant height of an addition group)/the plant height of the comparative group]×100
18.4 g of potassium hydroxide was dissolved in 400 ml of distilled water at 20° C., 50 g of cinnamic acid was added to the potassium hydroxide solution and dissolved by stirring, the resultant solution was diluted with distilled water until the total volume of solution was 500 ml, and thus 10% cinnamic acid aqueous solution (pH 8.8) was prepared. The aqueous solution was further diluted with distilled water 100 times or 33.3 times, and 0.1% cinnamic acid aqueous solution and 0.3% cinnamic acid aqueous solution were prepared, respectively.
Nursery soil for house use was filled into the same polyethylene joint pot as described above, water was sufficiently given to the soil, and seeds of cabbage were sowed. After seeding, the pot was placed in the same greenhouse as described above to sprout. Subsequently, on the 4th day, the cinnamic acid aqueous solutions were added to the nursery soil in the joint pot. Among 36 cells, 12 cells were prepared as a 0.1% cinnamic acid aqueous solution addition group, and 5 ml of the 0.1% cinnamic acid aqueous solution in Example 3 was added to the nursery soil of each cell. Another 12 cells were prepared as 0.3% cinnamic acid aqueous solution addition group, and 5 ml of the 0.3% cinnamic acid aqueous solution in Example 3 was added to the nursery soil of each cell. Remaining 12 cells were prepared as a comparative group in which 5 ml of water is added to each cell, instead of the cinnamic acid aqueous solution. Subsequently, the cultivation of cabbage young plants in each group was continued under general conditions. On the 22nd day, the heights of young plants in each group were measured, the dwarfing rate (%) was calculated, and the dwarfing effect of cinnamic acid aqueous solution on cabbage young plants was examined.

lettuce young plants = test: Dwarfing test of lettuce young plant; settings: for Plant Height / Dwarfing Rate: 5 ml per cell on 5th day, measured 20th day; for Dwarfing Rate: vs comparative group
Description: as §1, §2
In the same way as in Example 5 except that seeds of lettuce were sowed, and that heights of young plants in each group were measured on the 20th day, the dwarfing effect of cinnamic acid aqueous solution on lettuce young plants was examined. […]

Compound: O=C(O)C=Cc1ccccc1 [cinnamic acid]
- Plant Height (watermelon young plants; 0.05% aqueous solution): 9.3 cm
- Dwarfing Rate (watermelon young plants; 0.05% aqueous solution): 15.5%
- Plant Height (watermelon young plants; 0.2% aqueous solution): 7.9 cm
- Dwarfing Rate (watermelon young plants; 0.2% aqueous solution): 28.2%
- dwarfing effect (watermelon young plants; watermelon young plants, 0.05% and 0.2% aqueous solutions): effective
- Plant Height (radish young plants; 0.05% aqueous solution): 8.1 cm
- Dwarfing Rate (radish young plants; 0.05% aqueous solution): 11.0%
- Plant Height (radish young plants; 0.2% aqueous solution): 7.1 cm
- Dwarfing Rate (radish young plants; 0.2% aqueous solution): 22.0%
- dwarfing effect (radish young plants; radish young plants, 0.05% and 0.2% aqueous solutions): effective
- Plant Height (cabbage young plants; 0.1% aqueous solution): 7.9 cm
- Dwarfing Rate (cabbage young plants; 0.1% aqueous solution): 14.1%
- Plant Height (cabbage young plants; 0.3% aqueous solution): 6.1 cm
- Dwarfing Rate (cabbage young plants; 0.3% aqueous solution): 33.7%
- dwarfing effect (cabbage young plants; cabbage young plants, 0.1% and 0.3% aqueous solutions): effective
- Plant Height (lettuce young plants; 0.05% aqueous solution): 5.7 cm
- Dwarfing Rate (lettuce young plants; 0.05% aqueous solution): 6.6%
- Plant Height (lettuce young plants; 0.2% aqueous solution): 4.3 cm
- Dwarfing Rate (lettuce young plants; 0.2% aqueous solution): 29.5%
- dwarfing effect (lettuce young plants; lettuce young plants, 0.05% and 0.2% aqueous solutions): effective
